Experimental data published in US4875922A, “Pyrimidine derivatives” (Imperial Chemical Industries PLC, priority 1986, dated 1989).

What was measured:
[1] = tested on: Barley; experiment: Whole plant screen for plant growth regulator activity, barley (BR); format: in vivo, Barley (Atem); conditions: for G = Greening effect / I = Interligular or internodal length reduction / R = Retardation / T = Tillering or side shooting: BR, 4000 ppm (4 kg/ha), visual score after 2-6 weeks; for T = Tillering or side shooting: * = decrease in tillering
Method in brief: (§1)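 Plants were sprayed with compound at 4000 ppm (4 kg/ha in a 1000 l/ha field volume) by tracksprayer and kept in a glasshouse under a 16 h photoperiod: maize and rice at 25° C. day/22° C. night, wheat and barley at 16° C. day/13° C. night. Morphology was scored visually after 2-6 weeks against formulation blanks.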

[2] = tested on: Wheat; experiment: Whole plant screen for plant growth regulator activity, wheat (WW); format: in vivo, Wheat (Timmo); conditions: WW, 4000 ppm (4 kg/ha), visual score after 2-6 weeks; for T = Tillering or side shooting: * = decrease in tillering
Method in brief: as §1

[3] = tested on: Rice; experiment: Whole plant screen for plant growth regulator activity, rice (RC); format: in vivo, Rice (Ishikari); conditions: 4000 ppm (4 kg/ha), visual score after 2-6 weeks; for T = Tillering or side shooting: * = decrease in tillering
Method in brief: as §1

[4] = tested on: Maize; experiment: Whole plant screen for plant growth regulator activity, maize (MZ); format: in vivo, Maize (Earliking); conditions: 4000 ppm (4 kg/ha), visual score after 2-6 weeks
Method in brief: as §1

[5] = tested on: Apple; experiment: Whole plant screen for plant growth regulator activity, apple (AP); format: in vivo, Apple (Red Delicious); conditions: 4000 ppm (4 kg/ha), visual score after 2-6 weeks
Method in brief: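 Growth-regulator effects were judged by eye on glasshouse plants 2-6 weeks post-spray (timing varying with season), using formulation blanks for comparison. Application rate was 4000 ppm, equivalent to 4 kg/ha in 1000 l/ha.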

[6] = tested on: Rice; experiment: Intermediate Retardant Test, rice; format: in vivo, Rice (Ishikari); conditions: Oryza sativa, 672 h, overall spray, approximately 28 days, Table VI, read-out: Percentage Reduction in Height of Rice (Compared to formulation blank)
Method in brief: (§2)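 Overall spray at 500 and 2000 ppm (0.5 and 2 kg/ha^-1 at 1000 l/ha^-1); for apples, a 2000 ppm foliar-only spray was also compared with a 2000 ppm root drench. Rice grew in flooded 4" paddy pots, barley and apples in 4" pots. About 28 days after treatment, height (to top-most ligule, or to apex for apples) was recorded as % reduction versus formulation blank.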

[7] = tested on: Spring Barley; experiment: Intermediate Retardant Test, spring barley; format: in vivo, Spring Barley (Atem/kym); conditions: Hordeum vulgare, 672 h, overall spray, approximately 28 days, Table VII, read-out: Percentage Reduction in Height of Spring Barley (Compared to formulation blank)
Method in brief: as §2

[8] = tested on: Apples; experiment: Intermediate Retardant Test, apples, overall spray; format: in vivo, Apples (Red Delicious); conditions: approximately 28 days, Table VIII
From the text: Three species are involved in this test RICE, SPRING-BARLEY and APPLES. The variety and growth stages at spray are outlined in Table V. Compounds were applied at 500 ppm and 2000 ppm respectively (0.5 kg and 2 kg/ha^-1 at a field volume of 1000 l/ha^-1) as an overall spray except in the case of certain tests on APPLES. This gives a foliar and root component in the test, i.e., this test will detect the activity of both root and foliar acting compounds. The intermediate retardant test on APPLES of which the results are given in Table IX was different, in that a foliar (only) spray at 2000 ppm was compared with a root drench, also at 2000 ppm. The rice was grown in 4" `paddy` pots, i.e., the roots and bottom of the stems are immersed in water under conditions corresponding to those in paddy fields. Spring barley and apples were grown in 4" pots. The plants were assessed for height to top-most ligule at approximately 28 days after treatment for spring barley and rice and for height to apex at approximately 28 days after the treatment for apples. In each case the result for the 500 ppm and 2000 ppm test for each compound is compared to the height of the formulation blank in that test, presented as a percentage reduction in height compared to the formulation blank.

[9] = tested on: Erysiphe graminis; experiment: Foliar fungal disease control, Erysiphe graminis (barley); format: in vivo; conditions: 100 ppm spray plus root drench (approximately 40 ppm a.i/dry soil); inoculated 24 hours before treatment
[10] = tested on: Pyricularia oryzae; format: in vivo; conditions: 100 ppm spray plus root drench (approximately 40 ppm a.i/dry soil), one or two days before inoculation
[11] = tested on: Cercospora arachidicola; experiment: Foliar fungal disease control, Cercospora arachidicola (peanut); format: in vivo; conditions: 100 ppm spray plus root drench (approximately 40 ppm a.i/dry soil), one or two days before inoculation
[12] = tested on: Plasmopara viticola; experiment: Foliar fungal disease control, Plasmopara viticola (vine); format: in vivo; conditions: 100 ppm spray plus root drench (approximately 40 ppm a.i/dry soil), one or two days before inoculation
[13] = tested on: Puccinia recondita; experiment: Foliar fungal disease control, Puccinia recondita (wheat); format: in vivo; conditions: 100 ppm spray plus root drench (approximately 40 ppm a.i/dry soil), one or two days before inoculation
[14] = tested on: Phytophthora infestans; format: in vivo; conditions: 100 ppm spray plus root drench (approximately 40 ppm a.i/dry soil), one or two days before inoculation
[15] = tested on: Tomato; experiment: Whole plant screen for plant growth regulator activity, tomato (TO); format: in vivo, Tomato (Ailsa Craig); conditions: 4000 ppm (4 kg/ha), visual score after 2-6 weeks
Method in brief: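 Tomato (Ailsa Craig), one plant per 3-inch peat pot, sprayed at 2–2½ leaves with 4000 ppm (4 kg/ha in 1000 l/ha) by track sprayer. Glasshouse 25 °C day/22 °C night, 16 h photoperiod; morphology visually scored after 2–6 weeks against formulation blanks.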

[16] = tested on: Apples; experiment: Intermediate Retardant Test, apples, foliar spray compared with root drench; format: in vivo, Apples (Red Delicious); conditions: 672 h, approximately 28 days, Table IX, read-out: Percentage Reduction in Height of Apples (Compared to formulation blank); for percent reduction in plant height at 2000 ppm: 2000 ppm (Foliar); for percent reduction in plant height at 2000 µg/mL: soil, 2000 pmm (Root), root drench
Method in brief: as §2

[17] = tested on: Venturia inaequalis; experiment: Foliar fungal disease control, Venturia inaequalis (apple); format: in vivo; conditions: 100 ppm spray plus root drench (approximately 40 ppm a.i/dry soil), one or two days before inoculation

| Structure (SMILES) | G = Greening effect [1] | I = Interligular or internodal length reduction [1] | R = Retardation [1] | R = Retardation [2] | T = Tillering or side shooting [2] | G = Greening effect [3] | I = Interligular or internodal length reduction [3] | R = Retardation [3] | I = Interligular or internodal length reduction [5] | R = Retardation [5] | Percent reduction in rice height vs formulation blank at 500 ppm [6] | Percent reduction in rice height vs formulation blank at 2000 ppm [6] | percent reduction in plant height at 500 ppm [7] | percent reduction in plant height at 2000 ppm [7] | disease control, ERYSIPHE GRAMINIS (BARLEY) [9] | disease control, P[…] (RICE) [10] | disease control, CERCOSPORA ARACHIDICOLA (PEANUT) [11] | disease control, PLASMOPARA VITICOLA (VINE) [12] | disease control, PUCCINIA RECONDITA (WHEAT) [13] | disease control, PH[…] (TOMATO) [14] | other results |
| --- | --- | --- | --- | --- | --- | --- | --- | --- | --- | --- | --- | --- | --- | --- | --- | --- | --- | --- | --- | --- | --- |
| CCCCC#CC(O)(c1cncnc1)C(C)C (stereo not shown) [Compound 1, 2-methyl-1-(hex-1-yne)-1-(pyrimidin-5-yl)-propan-1-ol] | 2 (31-60%) | 3 (61-100%) | 3 (61-100%) | 3 (61-100%) | 2 (31-60%) | 2 (31-60%) | 3 (61-100%) | 2 (31-60%) | 3 (61-100%) | 3 (61-100%) | 6.06% | 23% | 1.3% | 12.1% | 4 | 0 (60-100% of disease on untreated plants) | 0 (60-100% of disease on untreated plants) | 0 (60-100% of disease on untreated plants) | 0 (60-100% of disease on untreated plants) | 0 (60-100% of disease on untreated plants) | T = Tillering or side shooting [1]: 1 (10-30%); G = Greening effect [2]: 1 (10-30%); T = Tillering or side shooting [3]: 3 (61-100%); I = Interligular or internodal length reduction [4]: 2 (31-60%); R = Retardation [4]: 2 (31-60%); T = Tillering or side shooting ([5]; * = decrease in tillering): 1 (10-30%); Percentage Reduction in Height of Apples (Compared to formulation blank) ([8]; 500 ppm): 10.8%; Percentage Reduction in Height of Apples (Compared to formulation blank) ([8]; 2000 ppm): 39.2% |
| CC(C)CC#CC(O)(c1cncnc1)C(C)(C)C (stereo not shown) [Compound 16] | 2 (31-60%) | 2 (31-60%) | 3 (61-100%) | 3 (61-100%) | 3 (61-100%) | 2 (31-60%) | 3 (61-100%) | 3 (61-100%) | 3 (61-100%) | 3 (61-100%) | 59% | 65% | 66% | 88% | 4 | 3 (trace - 5% of disease on untreated plants) | 4 | 0 (60-100% of disease on untreated plants) | 3 (trace - 5% of disease on untreated plants) | 0 (60-100% of disease on untreated plants) | G = Greening effect [2]: 2 (31-60%); I = Interligular or internodal length reduction [2]: 3 (61-100%); T = Tillering or side shooting [3]: 1 (10-30%); G = Greening effect [4]: 2 (31-60%); I = Interligular or internodal length reduction [4]: 3 (61-100%); R = Retardation [4]: 3 (61-100%); T = Tillering or side shooting ([4]; * = decrease in tillering): 1 (10-30%); G = Greening effect [5]: 3 (61-100%); G = Greening effect [15]: 2 (31-60%); I = Interligular or internodal length reduction [15]: 3 (61-100%); R = Retardation [15]: 3 (61-100%); percent reduction in plant height at 2000 ppm [16]: 6%; percent reduction in plant height at 2000 µg/mL [16]: 47%; disease control, VENTURIA INAEQUALIS (APPLE) [17]: 4 |
| CC(C)(C)C(O)(C#CCCCCl)c1cncnc1 (stereo not shown) [Compound 19, 2,2-Dimethyl-1-(5-chloropent-1-yne)-1-(pyrimidin-5-yl)-propan-1-ol] | 1 (10-30%) | 3 (61-100%) | 3 (61-100%) | 3 (61-100%) | 3 (61-100%) | 2 (31-60%) | 3 (61-100%) | 2 (31-60%) | 3 (61-100%) | 3 (61-100%) | 11% | 39% | 31% | 57% | 4 | 0 (60-100% of disease on untreated plants) | 4 | 0 (60-100% of disease on untreated plants) | 4 | 0 (60-100% of disease on untreated plants) | A = Apical damage ([1]; 4000 ppm): 3 (61-100%); T = Tillering or side shooting [1]: 3 (61-100%); I = Interligular or internodal length reduction [2]: 3 (61-100%); G = Greening effect [5]: 1 (10-30%); G = Greening effect [15]: 2 (31-60%); I = Interligular or internodal length reduction [15]: 2 (31-60%); R = Retardation [15]: 2 (31-60%); percent reduction in plant height at 2000 ppm [16]: 54%; percent reduction in plant height at 2000 µg/mL [16]: 65% |
